Measurements: the supplement of paper PMC13380429

Columns and labels:
Conditions in all cases: 72 h
[1] = tested on: HepG2; experiment: drug sensitivity score (DSS) for viability; higher = more toxic; extreme values may be limits of the assay
[2] = tested on: Caco-2; experiment: as above
[3] = tested on: Calu-3; experiment: as above
[4] = tested on: Vero E6; experiment: as above
[5] = tested on: HepG2; experiment: relative viability EC50 (midpoint between 100% and the lowest measured viability); higher = less toxic
[6] = tested on: Caco-2; experiment: as above
[7] = tested on: Calu-3; experiment: as above
[8] = tested on: Vero E6; experiment: as above
[9] = tested on: HepG2; experiment: cell viability relative to DMSO; higher = less toxic
[10] = tested on: Caco-2; experiment: as above
[11] = tested on: Calu-3; experiment: as above
[12] = tested on: Vero E6; experiment: as above
[13] = tested on: U2OS; experiment: drug sensitivity score (DSS) for viability; higher = more toxic; extreme values may be limits of the assay
[14] = tested on: U2OS; experiment: cell viability relative to DMSO; higher = less toxic

SMILES | drug sensitivity score [1] | drug sensitivity score [2] | drug sensitivity score [3] | drug sensitivity score [4] | relative viability EC50 [5] [µM] | relative viability EC50 [6] [µM] | relative viability EC50 [7] [µM] | relative viability EC50 [8] [µM] | cell viability ([9]; 1 nM) [%] | cell viability ([9]; 10 nM) [%] | cell viability ([9]; 100 nM) [%] | cell viability ([9]; 1000 nM) [%] | cell viability ([9]; 10000 nM) [%] | cell viability ([10]; 1 nM) [%] | cell viability ([10]; 10 nM) [%] | cell viability ([10]; 100 nM) [%] | cell viability ([10]; 1000 nM) [%] | cell viability ([10]; 10000 nM) [%] | cell viability ([11]; 1 nM) [%] | cell viability ([11]; 10 nM) [%] | cell viability ([11]; 100 nM) [%] | cell viability ([11]; 1000 nM) [%] | cell viability ([11]; 10000 nM) [%] | cell viability ([12]; 1 nM) [%] | cell viability ([12]; 10 nM) [%] | cell viability ([12]; 100 nM) [%] | cell viability ([12]; 1000 nM) [%] | cell viability ([12]; 10000 nM) [%] | drug sensitivity score [13] | cell viability ([14]; 1 nM) [%] | cell viability ([14]; 10 nM) [%] | cell viability ([14]; 100 nM) [%] | cell viability ([14]; 1000 nM) [%] | cell viability ([14]; 10000 nM) [%]
CN1CCc2nc(C(=O)N[C@@H]3C[C@@H](C(=O)N(C)C)CC[C@@H]3NC(=O)C(=O)Nc3ccc(Cl)cn3)sc2C1 [edoxaban] | 0 | 0 | 0 | 0 | > 10 | > 10 | > 10 | > 10 | 106 | 94.9 | 106 | 96.4 | 101 | 92.4 | 102 | 94.4 | 101 | 107 | 97.6 | 96.4 | 92.8 | 98.3 | 105 | 99.5 | 96 | 94.8 | 92.7 | 104 | – | – | – | – | – | –
C#C[C@]1(OC(=O)CCCCCC)CC[C@H]2[C@@H]3CCC4=CC(=O)CC[C@@H]4[C@H]3CC[C@@]21C [norethisterone-enanthate] | 6.4 | 2.8 | 3.2 | 0.6 | 2.06 | – | – | > 10 | 95.9 | 95.7 | 96.9 | 88.8 | 19.2 | 99.9 | 102 | 99.8 | 95.8 | 58.5 | 100 | 104 | 90 | 94.1 | 57.1 | 96.6 | 97.1 | 98.8 | 94.5 | 84.2 | 1.6 | 98.5 | 100 | 100 | 98.8 | 68.1
COc1cc2c(cc1OC)C(=O)C(CC1CCN(Cc3ccccc3)CC1)C2 (centres undefined) [donepezil] | 0 | 0 | 0 | 0.3 | > 10 | > 10 | > 10 | > 10 | 114 | 106 | 98.8 | 102 | 91.2 | 103 | 102 | 104 | 91.4 | 96.4 | 91.9 | 92.4 | 96 | 92 | 94.1 | – | – | – | – | – | – | – | – | – | – | –
CC(C)(C)c1ccc(CN(Cc2cccc(OCC(=O)O)c2)S(=O)(=O)c2cccnc2)cc1 [evatanepag] | 0 | 0 | 0 | 0 | > 10 | > 10 | > 10 | > 10 | 99.1 | 108 | 91.7 | 94.3 | 93.6 | 98.5 | 97.8 | 101 | 102 | 101 | 110 | 101 | 94.2 | 99.7 | 94.9 | 108 | 104 | 102 | 97.4 | 93.5 | – | – | – | – | – | –
COCCOCCOc1ccc(C2=N[C@@](C)(C(=O)O)CS2)c(O)c1 [SP-420] | 1.1 | 3 | 0 | 0 | – | – | > 10 | > 10 | 99.8 | 94.7 | 93 | 102 | 70.6 | 91.5 | 92.1 | 94.1 | 96 | 54 | 95.1 | 102 | 103 | 95.5 | 91.4 | 95 | 98.5 | 98.3 | 105 | 100 | 1.8 | 103 | 99.5 | 108 | 98.5 | 65.4
N#Cc1ccc(Cn2cncc2CN2CCN(c3cccc(Cl)c3)C(=O)C2)cc1 | 3.8 | 0.3 | 2.1 | 0.2 | 2.09 | > 10 | – | > 10 | 108 | 100 | 107 | 93.3 | 49.9 | 102 | 106 | 107 | 97.2 | 87 | 104 | 88.2 | 87.1 | 96.4 | 67.5 | 107 | 102 | 95.4 | 99.9 | 85.5 | 1.5 | 96.1 | 104 | 98.4 | 99.2 | 68.7
CCC(=O)O[C@H]1CC[C@H]2[C@@H]3CCC4=CC(=O)CC[C@]4(C)[C@H]3CC[C@]12C [TESTOSTERONE PROPIONATE] | 0 | – | – | 0 | – | – | – | – | – | – | – | – | – | – | – | – | – | – | – | – | – | – | – | – | – | – | – | – | 0 | – | – | – | – | –
CC(C)(S)C(=O)N[C@@H](CS)C(=O)O [bucillamine] | 0 | – | 0 | 0 | – | – | – | – | – | – | – | – | – | – | – | – | – | – | – | – | – | – | – | – | – | – | – | – | – | – | – | – | – | –
O=C(CBr)N1CC([N+](=O)[O-])([N+](=O)[O-])C1 [RRx-001] | 0 | 0 | 0 | 0 | > 10 | > 10 | > 10 | > 10 | 102 | 114 | 109 | 106 | 94.8 | 105 | 98.3 | 113 | 104 | 105 | 101 | 91.6 | 116 | 100 | 100 | 106 | 106 | 99.6 | 102 | 102 | – | – | – | – | – | –
O=C(O)CCCC[C@@H]1CCSS1 [thioctic-acid] | 0 | – | – | 0.8 | > 10 | – | – | > 10 | 114 | 97.9 | 111 | 106 | 120 | – | – | – | – | – | – | – | – | – | – | 101 | 108 | 104 | 86.5 | 90.2 | – | – | – | – | – | –
CCn1cc(C(=O)O)c(=O)c2cc(F)c(N3CCNCC3)nc21 [enoxacin] | 0 | 0 | 0 | 0 | > 10 | > 10 | > 10 | > 10 | 105 | 105 | 99.8 | 96 | 97.6 | 105 | 105 | 103 | 99.2 | 99.6 | 97.7 | 103 | 106 | 105 | 107 | 101 | 110 | 103 | 103 | 97.6 | – | – | – | – | – | –
COc1cc(N)cn[n+]1-c1ccccc1 [amezinium] | – | 0 | 0 | – | – | > 10 | > 10 | – | – | – | – | – | – | 109 | 108 | 100 | 110 | 97.8 | 97.8 | 110 | 106 | 89.9 | 96.6 | – | – | – | – | – | – | – | – | – | – | –
O=C(Nc1ccc(S(=O)(=O)Nc2nccs2)cc1)C(c1ccccc1)c1ccccc1 | 0 | 0 | – | – | > 10 | > 10 | – | – | 104 | 105 | 103 | 110 | 95.3 | 105 | 101 | 113 | 99 | 103 | – | – | – | – | – | – | – | – | – | – | – | – | – | – | – | –
Cc1nc(N)sc1-c1ccnc(Nc2ccc(N3CCOCC3)cc2)n1 [CYC116] | 7.2 | 1.7 | 0.7 | 5.1 | 1.38 | > 10 | > 10 | – | 97.9 | 106 | 97.9 | 77.8 | 28.4 | 99.3 | 87.4 | 98.8 | 87.7 | 75.1 | 104 | 109 | 101 | 105 | 75.5 | 100 | 103 | 99 | 80.8 | 51.6 | 4.1 | 104 | 102 | 103 | 89.6 | 53.7
COC(=O)[C@H](CC(C)C)NC(=O)c1ccc(NC[C@@H](N)CS)cc1-c1cccc2ccccc12 [GGTI-298] | 0 | 1 | 0 | 0.9 | > 10 | > 10 | > 10 | > 10 | 90.4 | 106 | 101 | 93.8 | 100 | 92.3 | 100 | 95.2 | 98.8 | 75.9 | 93.1 | 104 | 88.8 | 100 | 93.7 | 105 | 110 | 104 | 86.3 | 92.7 | 2.9 | 95.3 | 97.4 | 92.7 | 94.3 | 60.9
Cn1cnc(-c2cc3nccc(Oc4ccc(NC(=S)NC(=O)Cc5ccccc5)cc4F)c3s2)c1 [MGCD-265] | 0.8 | 3.5 | 3.7 | 0.6 | > 10 | – | – | > 10 | 103 | 92.7 | 97.6 | 97.9 | 80.6 | 97 | 99.8 | 98.3 | 84 | 63.6 | 96.6 | 93.1 | 100 | 86.9 | 62.3 | 106 | 106 | 103 | 104 | 77.3 | 2 | 102 | 95.9 | 103 | 96.5 | 67.3
O=c1[nH]cnc2c1cnn2[C@@H]1O[C@H](CO)[C@@H](O)[C@H]1O [allopurinol-riboside] | – | 0 | 0 | 0 | – | > 10 | > 10 | > 10 | – | – | – | – | – | 97.7 | 98 | 111 | 91.8 | 101 | 102 | 90.7 | 103 | 93.4 | 98.1 | 102 | 100 | 98.2 | 103 | 102 | – | – | – | – | – | –
CN(C)CCCC(=O)Nc1ccc(C(=O)Nc2cccc(Nc3ncc(Cl)c(-c4c[nH]c5ccccc45)n3)c2)cc1 [THZ1-R] | 9.7 | 0.7 | 1.3 | 0 | 1.22 | > 10 | > 10 | > 10 | 96 | 91.4 | 107 | 65.7 | 9.4 | 92.2 | 98.6 | 94.5 | 100 | 77.9 | 97.6 | 103 | 106 | 94.8 | 79.7 | 95.6 | 98 | 96.9 | 93.4 | 105 | 1.5 | 96.2 | 104 | 97.6 | 102 | 65.1
